Entries after “also recorded” stand apart in the source; their conditions may differ.
Key:
[1] = molecular target: p110α (Homo sapiens, UniProt P42336); assay: Chick embryo fibroblast (CEF) transformation assay, p110α; type: cell-based; details: read-out: EC-50 for functional activity of p110α, highest concentration tested 2000 nM
Description: (§1) Moreover, compound I has comparatively low activity on p110α in a cell-transformation system designed to measure functional activity of these kinases, but is a potent inhibitor of both p110β and p110δ in that assay. See Example 1. This chick embryo fibroblast (CEF) transformation system has been reported as a useful way to assess the functional activity of the PI3K signaling pathway. Denley, et al., “Oncogenic signaling of class I PI3K isoforms,” Oncogene, vol. 27(18), 2561-74 (2008). Transformation of CEF cells in the assay depends upon functional kinase activity. Kang, et al., Proc. Nat'l Acad. Sci. USA, vol. 103(5), 1289-94 (2006). The readout of this assay is based on the frequency of transformation of CEF cells exposed to viral vectors carrying a specific p110 isoform of interest.
(§2) Chick embryo fibroblasts (CEF) are transduced with viral stocks with versions of the human genes for the individual PI3K isoforms p110α, p110β, p110δ and p110γ. These transduced CEF lines are then plated in a growth medium where oncogenically transformed cells form foci that can then be stained and counted. […] Denley A, Kang S, Karst U and Vogt PK, “Oncogenic signaling of class 1 PI3K isoforms.” Oncogene (2008) 27: 2561-2574. FIG. 3 illustrates the readout of this assay.

[2] = molecular target: T1, p110δ (Homo sapiens, UniProt O00329); assay: Chick embryo fibroblast (CEF) transformation assay, p110δ; type: cell-based; details: read-out: EC-50 for inhibition of functional activity of p110δ
T1 construct: expressed in transfected cells; host or cells: chick embryo fibroblasts (CEF), viral transduction
Description: as §1, §2
T1 sequence (O00329 whole entry): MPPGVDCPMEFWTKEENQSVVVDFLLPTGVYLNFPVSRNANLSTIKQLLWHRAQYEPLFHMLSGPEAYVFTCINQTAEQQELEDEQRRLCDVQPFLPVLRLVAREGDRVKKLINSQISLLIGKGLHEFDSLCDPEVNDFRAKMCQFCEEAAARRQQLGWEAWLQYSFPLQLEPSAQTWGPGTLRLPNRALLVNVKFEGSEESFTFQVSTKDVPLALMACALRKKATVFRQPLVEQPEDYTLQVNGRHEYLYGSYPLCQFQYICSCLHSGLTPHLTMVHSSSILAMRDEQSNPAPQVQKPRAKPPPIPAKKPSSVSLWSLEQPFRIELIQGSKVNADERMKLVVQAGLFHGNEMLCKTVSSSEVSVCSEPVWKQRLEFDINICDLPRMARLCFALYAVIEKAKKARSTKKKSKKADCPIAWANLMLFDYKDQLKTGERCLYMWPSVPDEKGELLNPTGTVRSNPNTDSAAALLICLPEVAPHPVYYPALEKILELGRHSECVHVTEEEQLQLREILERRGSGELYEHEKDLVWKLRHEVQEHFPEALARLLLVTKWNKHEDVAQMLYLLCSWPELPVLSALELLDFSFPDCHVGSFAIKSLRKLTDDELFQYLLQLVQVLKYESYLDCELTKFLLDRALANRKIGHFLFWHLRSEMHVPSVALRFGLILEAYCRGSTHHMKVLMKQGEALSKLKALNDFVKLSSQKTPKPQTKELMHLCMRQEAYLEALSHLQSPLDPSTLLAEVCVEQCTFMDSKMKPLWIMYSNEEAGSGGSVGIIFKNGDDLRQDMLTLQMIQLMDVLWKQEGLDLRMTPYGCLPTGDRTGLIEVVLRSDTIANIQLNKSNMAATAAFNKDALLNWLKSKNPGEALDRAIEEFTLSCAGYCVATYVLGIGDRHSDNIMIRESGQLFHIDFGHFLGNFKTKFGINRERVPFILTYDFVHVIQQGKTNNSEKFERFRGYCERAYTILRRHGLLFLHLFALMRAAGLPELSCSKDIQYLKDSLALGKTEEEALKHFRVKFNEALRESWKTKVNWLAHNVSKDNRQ

[3] = molecular target: T2, p110α (Mus musculus, UniProt P42337); assay: Cell-based p110α assay: PDGF-stimulated Akt phosphorylation in SW3T3 cells
T2 construct: endogenous in cells; host or cells: SW3T3 cells
T2 sequence (P42337 whole entry): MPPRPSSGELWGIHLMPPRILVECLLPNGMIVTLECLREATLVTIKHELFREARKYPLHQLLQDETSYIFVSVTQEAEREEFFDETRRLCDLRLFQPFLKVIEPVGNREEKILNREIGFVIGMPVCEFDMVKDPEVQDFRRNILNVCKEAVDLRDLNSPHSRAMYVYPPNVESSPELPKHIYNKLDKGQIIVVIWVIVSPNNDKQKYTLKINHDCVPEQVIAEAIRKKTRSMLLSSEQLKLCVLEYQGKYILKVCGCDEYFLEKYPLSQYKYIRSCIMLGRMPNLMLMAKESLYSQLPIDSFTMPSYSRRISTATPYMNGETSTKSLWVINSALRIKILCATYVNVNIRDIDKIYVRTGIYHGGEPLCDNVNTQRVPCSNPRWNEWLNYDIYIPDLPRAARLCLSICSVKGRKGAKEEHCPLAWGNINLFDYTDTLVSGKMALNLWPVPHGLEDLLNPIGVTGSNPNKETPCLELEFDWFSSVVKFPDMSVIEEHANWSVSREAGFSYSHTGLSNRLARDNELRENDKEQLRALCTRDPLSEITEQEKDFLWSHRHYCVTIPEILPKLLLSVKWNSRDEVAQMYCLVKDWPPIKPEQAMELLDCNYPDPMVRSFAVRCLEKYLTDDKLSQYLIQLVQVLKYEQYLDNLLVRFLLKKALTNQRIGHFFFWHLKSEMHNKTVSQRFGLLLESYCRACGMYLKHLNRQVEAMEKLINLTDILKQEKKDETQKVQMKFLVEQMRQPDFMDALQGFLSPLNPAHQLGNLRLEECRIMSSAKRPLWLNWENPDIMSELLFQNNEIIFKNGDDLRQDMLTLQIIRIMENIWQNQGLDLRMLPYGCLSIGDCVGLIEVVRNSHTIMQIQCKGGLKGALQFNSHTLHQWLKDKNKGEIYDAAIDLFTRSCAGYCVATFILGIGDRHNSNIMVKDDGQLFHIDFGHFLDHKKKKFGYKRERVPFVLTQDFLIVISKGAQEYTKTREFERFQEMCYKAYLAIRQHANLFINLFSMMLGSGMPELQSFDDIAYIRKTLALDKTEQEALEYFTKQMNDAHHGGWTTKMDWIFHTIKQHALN
T2 sequence (P26450 whole entry partner): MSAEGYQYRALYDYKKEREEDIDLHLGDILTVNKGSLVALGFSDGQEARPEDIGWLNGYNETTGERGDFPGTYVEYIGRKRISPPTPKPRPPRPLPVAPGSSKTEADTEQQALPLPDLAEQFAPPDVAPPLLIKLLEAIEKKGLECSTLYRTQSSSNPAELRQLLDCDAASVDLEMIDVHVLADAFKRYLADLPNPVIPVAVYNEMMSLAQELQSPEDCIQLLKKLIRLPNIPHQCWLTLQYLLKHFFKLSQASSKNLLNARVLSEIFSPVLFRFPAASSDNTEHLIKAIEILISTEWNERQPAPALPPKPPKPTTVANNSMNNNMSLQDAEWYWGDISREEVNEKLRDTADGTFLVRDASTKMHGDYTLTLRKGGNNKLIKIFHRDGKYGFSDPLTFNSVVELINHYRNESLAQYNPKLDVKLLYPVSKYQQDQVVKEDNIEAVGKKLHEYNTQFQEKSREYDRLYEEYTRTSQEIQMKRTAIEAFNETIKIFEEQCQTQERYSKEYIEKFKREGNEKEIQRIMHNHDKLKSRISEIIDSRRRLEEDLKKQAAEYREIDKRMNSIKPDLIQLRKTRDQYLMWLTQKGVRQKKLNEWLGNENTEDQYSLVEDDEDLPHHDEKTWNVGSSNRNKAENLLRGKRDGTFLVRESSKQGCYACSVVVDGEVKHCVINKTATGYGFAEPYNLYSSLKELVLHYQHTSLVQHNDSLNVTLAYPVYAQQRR
Experimental: (§3) The p110α assay used SW3T3 cells stimulated by PDGF, and p110 kinase activity was measured by Akt phosphorylation. The p110β activity was measured by lysophosphatidic acid stimulation of Akt phosphorylation in mouse embryonic fibroblasts. The activity of p110δ was measured by anti-FcεR1 antibody cross linking stimulation of CD63 movement to the surface of basophils. Finally, the activity of p110γ was measured by fMLP stimulation of CD63 antigen movement to the cell surface of basophils.

[4] = molecular target: T3, p110δ (Homo sapiens, UniProt O00329); assay: Cell-based p110δ assay: anti-FcεR1 stimulated CD63 movement to surface of basophils
T3 construct: endogenous in cells
Experimental: as §3
T3 sequence (O00329 whole entry, species assumed): as the sequence (O00329 whole entry) above
T3 sequence (P27986 whole entry partner, species assumed): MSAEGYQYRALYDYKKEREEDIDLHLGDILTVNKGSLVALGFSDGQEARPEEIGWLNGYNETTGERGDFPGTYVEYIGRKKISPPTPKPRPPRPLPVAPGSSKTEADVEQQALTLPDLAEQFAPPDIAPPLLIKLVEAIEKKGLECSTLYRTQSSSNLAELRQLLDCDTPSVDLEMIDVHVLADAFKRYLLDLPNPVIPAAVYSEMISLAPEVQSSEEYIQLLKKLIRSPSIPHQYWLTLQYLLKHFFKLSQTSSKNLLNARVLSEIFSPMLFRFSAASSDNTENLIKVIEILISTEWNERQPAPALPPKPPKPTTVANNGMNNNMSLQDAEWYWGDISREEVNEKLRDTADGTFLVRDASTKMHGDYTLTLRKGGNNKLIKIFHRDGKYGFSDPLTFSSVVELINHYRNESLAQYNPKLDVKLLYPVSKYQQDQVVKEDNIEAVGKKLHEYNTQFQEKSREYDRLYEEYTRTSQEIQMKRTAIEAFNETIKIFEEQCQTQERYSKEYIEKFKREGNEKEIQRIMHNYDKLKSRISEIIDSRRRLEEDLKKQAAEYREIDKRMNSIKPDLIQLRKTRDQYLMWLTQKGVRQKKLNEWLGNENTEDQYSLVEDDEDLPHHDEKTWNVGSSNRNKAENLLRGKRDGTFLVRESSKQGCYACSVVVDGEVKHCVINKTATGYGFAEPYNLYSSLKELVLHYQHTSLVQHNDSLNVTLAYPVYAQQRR

[5] = test system: Akt phosphorylation in T47D (breast cancer); assay: Phosphorylation of Akt in T47D cells (FIG. 4); type: cell-based; details: 10 micromolar
Description: (§4) This distinguishes compound I from other known PI3K inhibitors in development for treatment of solid tumors, which are believed to act primarily at the p110α isoform or on p110α plus other isoforms, or even on all PI3Ks plus mTOR.

[6] = test system: Akt phosphorylation in OVCAR-3 (ovarian cancer); assay: Phosphorylation of Akt in OVCAR-3 cells (FIG. 4); type: cell-based; details: OVCAR-3, 10 micromolar
Description: as §4

[7] = test system: T47D; assay: Tumor cell culture growth, optical density at 459 nm (FIG. 7), T47D; type: cell-based; details: 5-10 micromolar
[8] = test system: A498 xenografts; assay: Renal cancer xenografts in nu/nu mice (FIG. 9); type: in vivo; details: 30 mg/kg BID, 20 days, female nu/nu mice
Experimental: Female nu/nu mice bearing A498 xenografts (human renal cancer cells) were maintained until tumor volume measured about 100 mm^3. At that point, treatment began with compound I at a rate of 30 mg/kg administered twice per day.

[9] = in vivo; set-up: species or system mice; details: female, nu/nu, mouse
Experimental: At this range, which was the effective dosage used in the tests shown in FIGS. 8 and 9, plasma concentration of compound I reaches about 5000-7000 ng/mL.
Compound I was administered in a single dose at a rate of 30 mg/kg to each test subject, and plasma levels were monitored for 12 hours thereafter. Plasma levels of Compound I peaked around 2-4 hours after administration in each case, and had essentially returned to zero 8 hours after the single dose at this rate, as shown in FIG. 10. The peak plasma concentration for these subjects, after a single injection at the dose shown to be effective for inhibiting tumor growth of each xenograft (see the preceding examples, and FIGS. 8-9) were generally below about 7000 ng/mL.

[10] = in vivo; details: rat, 60 mg/kg/day
Experimental: Compound I was dosed at 60, 120, or 240 mg/kg/day administered as a single dose for up to 14 days in healthy rats. […] The peak concentration of compound I (Cmax) and area under the curve (AUC) for tolerated doses were higher than those observed with effective doses of Compound I in the xenograft model tumors in mice.

[11] = test system: HOP-62; assay: NCI panel growth inhibition, HOP-62; type: cell-based; details: Homo sapiens, Non-Small Cell Lung Cancer
Description: (§5) Compound I has also been tested in a battery of tumor cell assays known as the NCI panel.

[12] = test system: HOP-92; assay: NCI panel growth inhibition, HOP-92; type: cell-based; details: Homo sapiens, Non-Small Cell Lung Cancer
Description: as §5

[13] = test system: NCI-H226; assay: NCI panel growth inhibition, NCI-H226; type: cell-based; details: Homo sapiens, Non-Small Cell Lung Cancer
Description: as §5

[14] = test system: NCI-H23; assay: NCI panel growth inhibition, NCI-H23; type: cell-based; details: Homo sapiens, Non-Small Cell Lung Cancer
Description: as §5

[15] = test system: HCT-116; assay: NCI panel growth inhibition, HCT-116; type: cell-based; details: Homo sapiens, Colon Cancer
Description: as §5

[16] = test system: SNB-19; assay: NCI panel growth inhibition, SNB-19; type: cell-based; details: Homo sapiens, CNS Cancer
Description: as §5

[17] = test system: M14; assay: NCI panel growth inhibition, M14; type: cell-based; details: Homo sapiens, Melanoma
Description: as §5

[18] = test system: UACC-257; assay: NCI panel growth inhibition, UACC-257; type: cell-based; details: Homo sapiens, Melanoma
Description: as §5

[19] = test system: UACC-62; assay: NCI panel growth inhibition, UACC-62; type: cell-based; details: Homo sapiens, Melanoma
Description: as §5

[20] = test system: SK-OV-3; assay: NCI panel growth inhibition, SK-OV-3; type: cell-based; details: Homo sapiens, Ovarian
Description: as §5

[21] = test system: A498; assay: NCI panel growth inhibition, A498; type: cell-based; details: Homo sapiens, Renal
Description: as §5

[22] = test system: TK-10; assay: NCI panel growth inhibition, TK-10; type: cell-based; details: Homo sapiens, Renal
Description: as §5

[23] = test system: T-47D; assay: NCI panel growth inhibition, T-47D; type: cell-based; details: Homo sapiens, T47D, Breast Cancer
Description: as §5

p110α (Homo sapiens, UniProt P42336), sequence (P42336 whole entry, stated change not applied, canonical isoform): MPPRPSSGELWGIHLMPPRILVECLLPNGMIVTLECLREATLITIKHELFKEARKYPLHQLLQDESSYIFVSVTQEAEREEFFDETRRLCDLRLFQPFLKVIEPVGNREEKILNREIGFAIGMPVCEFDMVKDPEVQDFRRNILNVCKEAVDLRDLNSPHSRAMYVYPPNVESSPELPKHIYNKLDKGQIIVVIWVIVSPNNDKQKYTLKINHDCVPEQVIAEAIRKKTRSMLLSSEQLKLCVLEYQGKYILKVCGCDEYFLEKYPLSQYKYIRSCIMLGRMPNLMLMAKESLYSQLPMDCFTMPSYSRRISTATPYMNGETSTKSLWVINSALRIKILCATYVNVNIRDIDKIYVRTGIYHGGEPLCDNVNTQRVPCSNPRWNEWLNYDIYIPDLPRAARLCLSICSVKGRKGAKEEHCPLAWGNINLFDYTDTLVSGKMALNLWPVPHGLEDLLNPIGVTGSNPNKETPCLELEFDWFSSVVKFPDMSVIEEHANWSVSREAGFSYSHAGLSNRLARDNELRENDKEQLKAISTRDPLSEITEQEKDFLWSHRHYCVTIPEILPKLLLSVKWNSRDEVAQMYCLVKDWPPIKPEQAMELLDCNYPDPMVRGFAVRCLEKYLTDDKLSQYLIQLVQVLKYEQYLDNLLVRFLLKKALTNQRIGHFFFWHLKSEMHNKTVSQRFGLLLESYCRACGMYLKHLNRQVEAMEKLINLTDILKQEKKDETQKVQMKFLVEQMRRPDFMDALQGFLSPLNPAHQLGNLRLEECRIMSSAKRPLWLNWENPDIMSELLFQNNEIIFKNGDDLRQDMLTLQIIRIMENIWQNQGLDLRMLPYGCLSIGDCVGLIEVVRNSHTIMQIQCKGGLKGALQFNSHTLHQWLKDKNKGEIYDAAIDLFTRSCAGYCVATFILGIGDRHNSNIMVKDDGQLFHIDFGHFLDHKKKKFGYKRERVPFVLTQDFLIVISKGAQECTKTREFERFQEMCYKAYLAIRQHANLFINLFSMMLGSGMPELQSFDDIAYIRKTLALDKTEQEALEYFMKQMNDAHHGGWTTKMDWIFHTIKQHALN

Question: What does the source list for `C[C@H](Nc1ncnc2[nH]cnc12)c1nc2ccc(F)cc2c(=O)n1-c1ccccc1` [Compound I]?
Answer: EC50 [1]: > 2 µM; EC50 [2]: ~0.015 µM; EC50 [3]: > 20 µM; EC50 ([4]; FB, read-out: Cell-based assay EC50 p110δ, FB): 0.0084 µM; EC50 ([4]; WB, read-out: Cell-based assay EC50 p110δ, WB): 0.019 µM; Phosphorylation of Akt [5]: inhibits phosphorylation of Akt; Phosphorylation of Akt [6]: inhibits phosphorylation of Akt; Inhibition of tumor cell culture growth [7]: strong inhibition of growth; Tumor volume of A498 xenograft [8]: significantly inhibited growth; also recorded: tumor volume approximately doubled; Tumor volume of A498 xenograft ([8]; listed as compound I): significant reduction in tumor growth; AUC [9]: 18,000 ng-h/mL; Time after which plasma levels had essentially returned to zero ([9]; 30 mg/kg): 8 h; Time of peak plasma level after administration ([9]; 30 mg/kg): 2 to 4 h; AUC ([9]; AUC): 15000 ng·h/mL; AUC [10]: 58000 ng·h/mL; Cmax [10]: 7300 ng/mL; GI50 [11]: 14.8 µM; GI50 [12]: 0.3 µM; GI50 [13]: 100 µM; GI50 [14]: 100 µM; GI50 [15]: 37.9 µM; GI50 [16]: 19.3 µM; GI50 [17]: 88.9 µM; GI50 [18]: 17.4 µM; GI50 [19]: 1.43 µM; GI50 [20]: 4.02 µM; GI50 [21]: 0.615 µM; GI50 [22]: 1.24 µM; GI50 [23]: 0.571 µM

From patent US8546409B2, “Methods of treatment for solid tumors” (priority 2009, dated 2013)
